Assay results reported in article PMC10006169, “A phase I trial of LXS196, a protein kinase C (PKC) inhibitor, for metastatic uveal melanoma” (British Journal of Cancer, 2023).

Tested on: patients with MUM
Experiment: Adverse events regardless of study drug relationship
Assay type: in vivo, human
Protocol: Routine safety assessments, including laboratory assessments, physical examinations, vital signs and electrocardiograms (ECGs), were conducted at regular intervals throughout the study and more frequently as needed following patient assessment by the treating physician. Adverse events (AEs) were assessed continuously according to the National Cancer Institute Common Terminology Criteria for Adverse Events (NCI-CTCAE) v4.03.

CC1(N)CCN(c2cccnc2NC(=O)c2nc(-c3ncccc3C(F)(F)F)cnc2N)CC1 [LXS196]
ALT increased, all grades (300 mg BID (RDE)): 5 (27.8) n (%) | ALT increased, grade ≥3 (300 mg BID (RDE)): 1 (5.6) n (%) | AST increased, all grades (300 mg BID (RDE)): 4 (22.2) n (%) | AST increased, grade ≥3 (300 mg BID (RDE)): 2 (11.1) n (%) | Abdominal pain upper, all grades (300 mg BID (RDE)): 3 (16.7) n (%) | Abdominal pain upper, grade ≥3 (300 mg BID (RDE)): 0 n (%) | Asthenia, all grades (300 mg BID (RDE)): 4 (22.2) n (%) | Asthenia, grade ≥3 (300 mg BID (RDE)): 0 n (%) | Blood creatinine increased, all grades (300 mg BID (RDE)): 2 (11.1) n (%) | Blood creatinine increased, grade ≥3 (300 mg BID (RDE)): 0 n (%) | Constipation, all grades (300 mg BID (RDE)): 4 (22.2) n (%) | Constipation, grade ≥3 (300 mg BID (RDE)): 0 n (%) | Decreased appetite, all grades (300 mg BID (RDE)): 2 (11.1) n (%) | Decreased appetite, grade ≥3 (300 mg BID (RDE)): 0 n (%) | Dermatitis acneiform, all grades (300 mg BID (RDE)): 3 (16.7) n (%) | Dermatitis acneiform, grade ≥3 (300 mg BID (RDE)): 0 n (%) | Diarrhoea, all grades (300 mg BID (RDE)): 11 (61.1) n (%) | Diarrhoea, grade ≥3 (300 mg BID (RDE)): 1 (5.6) n (%) | Dry skin, all grades (300 mg BID (RDE)): 4 (22.2) n (%) | Dry skin, grade ≥3 (300 mg BID (RDE)): 0 n (%) | Fatigue, all grades (300 mg BID (RDE)): 6 (33.3) n (%) | Fatigue, grade ≥3 (300 mg BID (RDE)): 0 n (%) | Hypotension, all grades (300 mg BID (RDE)): 3 (16.7) n (%) | Hypotension, grade ≥3 (300 mg BID (RDE)): 0 n (%) | Nasopharyngitis, all grades (300 mg BID (RDE)): 2 (11.1) n (%) | Nasopharyngitis, grade ≥3 (300 mg BID (RDE)): 0 n (%) | Nausea, all grades (300 mg BID (RDE)): 15 (83.3) n (%) | Nausea, grade ≥3 (300 mg BID (RDE)): 0 n (%) | Neutropenia, all grades (300 mg BID (RDE)): 0 n (%) | Neutropenia, grade ≥3 (300 mg BID (RDE)): 0 n (%) | Oedema peripheral, all grades (300 mg BID (RDE)): 5 (27.8) n (%) | Oedema peripheral, grade ≥3 (300 mg BID (RDE)): 1 (5.6) n (%) | Patients with ≥1 AE, all grades (300 mg BID (RDE)): 18 (100) n (%) | Patients with ≥1 AE, grade ≥3 (300 mg BID (RDE)): 8 (44.4) n (%) | Rash, all grades (300 mg BID (RDE)): 5 (27.8) n (%) | Rash, grade ≥3 (300 mg BID (RDE)): 0 n (%) | Vomiting, all grades (300 mg BID (RDE)): 8 (44.4) n (%) | Vomiting, grade ≥3 (300 mg BID (RDE)): 0 n (%) | ALT increased, all grades (300 mg QD): 4 (26.7) n (%) | ALT increased, grade ≥3 (300 mg QD): 1 (6.7) n (%) | AST increased, all grades (300 mg QD): 1 (6.7) n (%) | AST increased, grade ≥3 (300 mg QD): 1 (6.7) n (%) | Abdominal pain upper, all grades (300 mg QD): 2 (13.3) n (%) | Abdominal pain upper, grade ≥3 (300 mg QD): 0 n (%) | Asthenia, all grades (300 mg QD): 3 (20.0) n (%) | Asthenia, grade ≥3 (300 mg QD): 0 n (%) | Blood creatinine increased, all grades (300 mg QD): 2 (13.3) n (%) | Blood creatinine increased, grade ≥3 (300 mg QD): 0 n (%) | Constipation, all grades (300 mg QD): 4 (26.7) n (%) | Constipation, grade ≥3 (300 mg QD): 0 n (%) | Decreased appetite, all grades (300 mg QD): 0 n (%) | Decreased appetite, grade ≥3 (300 mg QD): 0 n (%) | Dermatitis acneiform, all grades (300 mg QD): 1 (6.7) n (%) | Dermatitis acneiform, grade ≥3 (300 mg QD): 0 n (%) | Diarrhoea, all grades (300 mg QD): 6 (40.0) n (%) | Diarrhoea, grade ≥3 (300 mg QD): 0 n (%) | Dry skin, all grades (300 mg QD): 1 (6.7) n (%) | Dry skin, grade ≥3 (300 mg QD): 0 n (%) | Fatigue, all grades (300 mg QD): 8 (53.3) n (%) | Fatigue, grade ≥3 (300 mg QD): 0 n (%) | Hypotension, all grades (300 mg QD): 1 (6.7) n (%) | Hypotension, grade ≥3 (300 mg QD): 0 n (%) | Nasopharyngitis, all grades (300 mg QD): 3 (20.0) n (%) | Nasopharyngitis, grade ≥3 (300 mg QD): 0 n (%) | Nausea, all grades (300 mg QD): 10 (66.7) n (%) | Nausea, grade ≥3 (300 mg QD): 0 n (%) | Neutropenia, all grades (300 mg QD): 3 (20.0) n (%) | Neutropenia, grade ≥3 (300 mg QD): 1 (6.7) n (%) | Oedema peripheral, all grades (300 mg QD): 2 (13.3) n (%) | Oedema peripheral, grade ≥3 (300 mg QD): 0 n (%) | Patients with ≥1 AE, all grades (300 mg QD): 14 (93.3) n (%) | Patients with ≥1 AE, grade ≥3 (300 mg QD): 4 (26.7) n (%) | Rash, all grades (300 mg QD): 4 (26.7) n (%) | Rash, grade ≥3 (300 mg QD): 0 n (%) | Vomiting, all grades (300 mg QD): 6 (40.0) n (%) | Vomiting, grade ≥3 (300 mg QD): 0 n (%) | ALT increased, all grades (400 mg BID): 3 (50.0) n (%) | ALT increased, grade ≥3 (400 mg BID): 1 (16.7) n (%) | AST increased, all grades (400 mg BID): 3 (50.0) n (%) | AST increased, grade ≥3 (400 mg BID): 1 (16.7) n (%) | Abdominal pain upper, all grades (400 mg BID): 0 n (%) | Abdominal pain upper, grade ≥3 (400 mg BID): 0 n (%) | Asthenia, all grades (400 mg BID): 2 (33.3) n (%) | Asthenia, grade ≥3 (400 mg BID): 0 n (%) | Blood creatinine increased, all grades (400 mg BID): 0 n (%) | Blood creatinine increased, grade ≥3 (400 mg BID): 0 n (%) | Constipation, all grades (400 mg BID): 2 (33.3) n (%) | Constipation, grade ≥3 (400 mg BID): 0 n (%) | Decreased appetite, all grades (400 mg BID): 2 (33.3) n (%) | Decreased appetite, grade ≥3 (400 mg BID): 0 n (%) | Dermatitis acneiform, all grades (400 mg BID): 1 (16.7) n (%) | Dermatitis acneiform, grade ≥3 (400 mg BID): 0 n (%) | Diarrhoea, all grades (400 mg BID): 3 (50.0) n (%) | Diarrhoea, grade ≥3 (400 mg BID): 0 n (%) | Dry skin, all grades (400 mg BID): 1 (16.7) n (%) | Dry skin, grade ≥3 (400 mg BID): 0 n (%) | Fatigue, all grades (400 mg BID): 1 (16.7) n (%) | Fatigue, grade ≥3 (400 mg BID): 0 n (%) | Hypotension, all grades (400 mg BID): 4 (66.7) n (%) | Hypotension, grade ≥3 (400 mg BID): 1 (16.7) n (%) | Nasopharyngitis, all grades (400 mg BID): 0 n (%) | Nasopharyngitis, grade ≥3 (400 mg BID): 0 n (%) | Nausea, all grades (400 mg BID): 3 (50.0) n (%) | Nausea, grade ≥3 (400 mg BID): 0 n (%) | Neutropenia, all grades (400 mg BID): 1 (16.7) n (%) | Neutropenia, grade ≥3 (400 mg BID): 0 n (%) | Oedema peripheral, all grades (400 mg BID): 1 (16.7) n (%) | Oedema peripheral, grade ≥3 (400 mg BID): 0 n (%) | Patients with ≥1 AE, all grades (400 mg BID): 6 (100) n (%) | Patients with ≥1 AE, grade ≥3 (400 mg BID): 4 (66.7) n (%) | Rash, all grades (400 mg BID): 1 (16.7) n (%) | Rash, grade ≥3 (400 mg BID): 0 n (%) | Vomiting, all grades (400 mg BID): 3 (50.0) n (%) | Vomiting, grade ≥3 (400 mg BID): 0 n (%)
